The conditions of data set [1]: background statement; cited from earlier work.
Data set [2] is described as follows: Sensory evaluation (taste test) of Reb D3 against sucrose controls by a panel of nine volunteers. It is filed as in vivo, human. The settings on record: for overall % sweetness equivalence (SE) average: room temperature, vs 1.0%, 3.0%, 6.0% sucrose (w/v), nine volunteers. The method, then: In this Example, a taste test was conducted on Reb D3.
Sensory evaluation of Reb D3 was performed using sucrose as a control. The sucrose sample purchased from Sigma-Aldrich and prepared control samples at three different concentrations of 1.0%, 3.0%, and 6.0% sucrose in bottled water (w/v) at room temperature. The steviol glycoside Reb D3 at 300, and 600 ppm for sensory evaluation was prepared by adding corresponding mass into a 1000 mL of bottled water. The mixture was stirred at room temperature and the steviol glycoside sample was then evaluated against several control sucrose samples at 1.0%, 3.0%, and 6.0% by a panel of nine volunteers.

Data set [3] is described as follows: Solubility in water of Reb D3 compared to Reb D. Format: physicochemical. An excerpt: In this Example, the solubility of Reb D3 was compared to Reb D.

As for `C=C1C[C@@]23CC[C@H]4[C@@](C)(CCC[C@@]4(C)C(=O)O[C@@H]4O[C@H](CO)[C@@H](O)[C@H](O)[C@H]4O)[C@@H]2CC[C@]1(O[C@@H]1O[C@H](CO)[C@@H](O)[C@H](O)[C@H]1O[C@@H]1O[C@@H](C)[C@H](O)[C@@H](O)[C@H]1O)C3` [Dulcoside A], the “times sweeter than sucrose” value in data set [1] was “about 30 times”.

With `C=C1C[C@@]23CCC4[C@](C)(C(=O)OC5OC(CO)C(O)C(O)C5OC5OC(CO)C(O)C(O)C5O)CCC[C@@]4(C)[C@@H]2CCC1(OC1OC(COC2OC(CO)C(O)C(O)C2O)C(O)C(O)C1OC1OC(CO)C(O)C(O)C1O)C3` (stereo partly drawn) [Reb D3, 13-[(2-O-β-D-glucopyranosyl-6-O-β-D-glucopyranosyl-β-D-glucopyranosyl)oxy] ent-kaur-16-en-19-oic acid-(2-O-β-D-glucopyranosyl-β-D-glucopyranosyl) ester], the “overall % sweetness equivalence (SE) average” value in data set [2] (300 ppm in bottled water) is given as “about 2.4%”; in data set [2] (600 ppm in bottled water), roughly 5.4%. In data set [2] (from SE at 300 and 600 ppm), the “times sweeter to sucrose” value is 80-90 times. In addition, the “solubility in water compared with Reb D” value in data set [3] is “higher solubility in water than does Reb D”. In data set [3] (solutions of 0.25 mM, 0.5 mM, 1 mM, 1.5 mM, 2 mM, 5 mM and 10 mM in water), the dissolution in water result is recorded as “completely dissolved in water immediately”.

With `C=C1C[C@@]23CC[C@H]4[C@@](C)(CCC[C@@]4(C)C(=O)O[C@@H]4O[C@H](CO)[C@@H](O)[C@H](O)[C@H]4O[C@@H]4O[C@H](CO)[C@@H](O)[C@H](O)[C@H]4O)[C@@H]2CC[C@]1(O[C@@H]1O[C@H](CO)[C@@H](O)[C@H](O[C@@H]2O[C@H](CO)[C@@H](O)[C@H](O)[C@H]2O)[C@H]1O[C@@H]1O[C@H](CO)[C@@H](O)[C@H](O)[C@H]1O)C3` [Reb D, Rebaudioside D], in data set [3] (0.5 mM, 1 mM, 1.5 mM, 2 mM, 5 mM and 10 mM, heated at 30° C. for 72 hours), the “dissolution in water when heated” value is given as “did not dissolve”. Moreover, the “concentration that totally dissolved in water” value in data set [3] (tested 0.25-10 mM in water) is 250 µM.

Regarding `C=C1C[C@@]23CC[C@H]4[C@@](C)(CCC[C@@]4(C)C(=O)O[C@@H]4O[C@H](CO)[C@@H](O)[C@H](O)[C@H]4O)[C@@H]2CC[C@]1(O[C@@H]1O[C@H](CO)[C@@H](O)[C@H](O[C@@H]2O[C@H](CO)[C@@H](O)[C@H](O)[C@H]2O)[C@H]1O[C@@H]1O[C@H](CO)[C@@H](O)[C@H](O)[C@H]1O)C3` [Rebaudioside A], the after-taste entry in data set [1] was “less of an after-taste than stevioside”.

As to `C=C1C[C@@]23CC[C@H]4[C@@](C)(CCC[C@@]4(C)C(=O)O[C@@H]4O[C@H](CO)[C@@H](O)[C@H](O)[C@H]4O)[C@@H]2CC[C@]1(O[C@@H]1O[C@H](CO)[C@@H](O)[C@H](O[C@@H]2O[C@H](CO)[C@@H](O)[C@H](O)[C@H]2O)[C@H]1O[C@@H]1O[C@@H](C)[C@H](O)[C@@H](O)[C@H]1O)C3` [Rebaudioside C], the “times sweeter than sucrose” value in data set [1] was 40-60 times.

Turning to `C=C1C[C@@]23CC[C@H]4[C@@](C)(CCC[C@@]4(C)C(=O)O[C@@H]4O[C@H](CO)[C@@H](O)[C@H](O)[C@H]4O)[C@@H]2CC[C@]1(O[C@@H]1O[C@H](CO)[C@@H](O)[C@H](O)[C@H]1O[C@@H]1O[C@H](CO)[C@@H](O)[C@H](O)[C@H]1O)C3` [Stevioside], in data set [1], the after-taste entry is “bitter after-taste” and the “times sweeter than sucrose” value is recorded as 100-150 times.

For the molecule `C=C1C[C@@]23CCC4[C@](C)(C(=O)OC5OC(CO)C(O)C(O)C5OC5OC(CO)C(O)C(O)C5O)CCC[C@@]4(C)[C@@H]2CCC1(OC1OC(CO)C(O)C(O)C1OC1OC(CO)C(O)C(O)C1O)C3` (stereo partly shown) [rebaudioside E, Rebaudioside E], in data set [1], the after-taste result is recorded as “less of an after-taste than stevioside”.
